Measured values from patent US10047383B2, “Bioproduction of chemicals” (Cargill, Incorporated, priority 2013, dated 2018).

Experiments:
H. elongata ACCase = experiment: Salt effect on ACCase from the halophile; assay type: biochemical, Halomonas elongata; conditions: FIG. 4, compared to the E. coli ACCase
Experimental: Concentrations of products were measured using the Nanodrop spectophotometer.

E. coli strains = experiment: Growth inhibition of E. coli strains grown in the presence of 3-HP; assay type: cell-based

Cl.N [NH4Cl, reference compound]
effect of salt on H. elongata ACCase (H. elongata ACCase): less affected

O=C(O)CCO [3-HP, 3-hydroxypropionic acid]
3-HP level at which growth inhibition has been demonstrated (E. coli strains): ≥ 20 g/L

N.O=C(O)CCO [NH4-3-HP]
effect of salt on H. elongata ACCase (H. elongata ACCase): less affected
